The target of one assay is T1, hMAO-A (Homo sapiens, UniProt P21397).
T1 construct: purchased Sigma-Aldrich
T1 sequence (P21397 1-527): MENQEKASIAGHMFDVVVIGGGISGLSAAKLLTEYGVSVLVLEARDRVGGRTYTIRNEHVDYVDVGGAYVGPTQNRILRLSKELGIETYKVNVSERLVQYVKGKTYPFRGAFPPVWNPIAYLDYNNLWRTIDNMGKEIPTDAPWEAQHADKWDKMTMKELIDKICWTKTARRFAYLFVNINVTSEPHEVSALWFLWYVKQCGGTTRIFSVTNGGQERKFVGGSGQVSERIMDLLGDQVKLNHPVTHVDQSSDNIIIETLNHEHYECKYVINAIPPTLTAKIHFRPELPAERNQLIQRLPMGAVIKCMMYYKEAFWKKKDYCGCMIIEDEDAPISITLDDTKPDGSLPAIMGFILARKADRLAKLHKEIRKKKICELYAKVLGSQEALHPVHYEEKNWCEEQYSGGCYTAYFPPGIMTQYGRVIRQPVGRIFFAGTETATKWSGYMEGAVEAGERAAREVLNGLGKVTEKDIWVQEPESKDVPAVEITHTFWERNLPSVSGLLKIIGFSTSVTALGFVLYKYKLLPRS
As to the kind of experiment: hMAO-A inhibition, recombinant enzyme, kynuramine substrate, fluorescence. The format is biochemical.

In the next assay the target is hCA IX (Homo sapiens, UniProt Q16790). As to the kind of experiment: stopped flow CO2 hydrase assay, hCA IX. The format is biochemical. The note with it: mean of 3 different assays.
In another assay the target is T2, hMAO-B (Homo sapiens, UniProt P27338).
T2 construct: purchased Sigma-Aldrich
T2 sequence (P27338 1-520): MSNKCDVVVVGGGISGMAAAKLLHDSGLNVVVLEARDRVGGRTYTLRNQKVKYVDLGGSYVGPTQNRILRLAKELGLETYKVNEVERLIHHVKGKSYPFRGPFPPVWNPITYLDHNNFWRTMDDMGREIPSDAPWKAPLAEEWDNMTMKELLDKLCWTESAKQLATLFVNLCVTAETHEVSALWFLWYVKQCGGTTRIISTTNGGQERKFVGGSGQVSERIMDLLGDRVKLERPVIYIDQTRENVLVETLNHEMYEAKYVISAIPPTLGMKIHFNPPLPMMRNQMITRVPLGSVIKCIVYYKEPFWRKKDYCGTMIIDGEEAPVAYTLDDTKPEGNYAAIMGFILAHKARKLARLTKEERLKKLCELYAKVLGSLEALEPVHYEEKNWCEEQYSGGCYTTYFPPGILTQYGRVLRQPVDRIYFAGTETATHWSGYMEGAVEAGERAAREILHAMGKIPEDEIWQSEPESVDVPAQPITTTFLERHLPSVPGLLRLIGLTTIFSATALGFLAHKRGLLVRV
As to the kind of experiment: hMAO-B inhibition, recombinant enzyme, kynuramine substrate, fluorescence. The format is biochemical.

Assay [1] has as its system CTX/TNA2 rat astrocytes pre-stimulated with LPS. The assay can be described thus: Cell metabolic activity assay (MTT), LPS pre-stimulated astrocytes. The format is cell-based. To be noted: pre-stimulated with 0.1 µg/mL LPS 20 h, then compounds 24 and 72 h.
In another assay the target is hCA VII (Homo sapiens, UniProt P43166). As to the kind of experiment: stopped flow CO2 hydrase assay, hCA VII. The format is biochemical. The note with it: mean of 3 different assays.
The next assay concerns the target hCA I (Homo sapiens, UniProt P00915). The assay can be described thus: stopped flow CO2 hydrase assay, hCA I. To be noted: mean of 3 different assays. The format is biochemical.
Assay [2] relates to Interleukin-6 secretion from rat astrocytes pre-stimulated with LPS. The assay can be described thus: IL-6 secretion by ELISA in LPS pre-stimulated astrocytes. The format is cell-based. To be noted: 24 h, compared to LPS alone. The procedure:
(§1) Cells were seeded (8 × 10^3/well) and were left to adhere for 24 h in 96-well plates (Falcon®, Corning Incorporated, NY, USA). The medium was removed, incubating the cell monolayer in the presence of increasing concentrations of DEP, AAZ, and test compounds (0–150 µM) for 24–72 h. In a second set of experiments, cells were pre-incubated in the presence of 0.1 µg/mL LPS (lipopolysaccharide from E. coli, purchased from Merck, Darmstadt, Germany) for 20 h and further exposed to DEP, AAZ, and test compounds in the same experimental conditions.
The amounts (pg/mL) of interleukin-6 (IL-6) were analyzed in cell supernatants using an ELISA kit (Enzo Life Sciences Inc., Lausen, Switzerland) following the manufacturer’s instructions. Absorbance was read at 450 nm and cytokine concentration was determined. Data obtained were normalized on MTT optical densities.
For orientation: ELISA stands for enzyme-linked immunosorbent assay.

For another assay, the target named is hCA XII (Homo sapiens, UniProt O43570). As to the kind of experiment: stopped flow CO2 hydrase assay, hCA XII. The format is biochemical. To be noted: mean of 3 different assays.
In assay [3] the test system is H2O2 generation in rat astrocytes pre-stimulated with LPS. As to the kind of experiment: Hydrogen peroxide measurement in supernatants of LPS pre-stimulated astrocytes. The format is cell-based. The note with it: 24 h, 10 µM. The procedure:
as §1
At 24 h, cell supernatants were taken from the cultures used for the MTT assay. The quantitative determination of H2O2 released in supernatants was performed by means of a H2O2 colorimetric kit (cat. no. ADI-907-015, Enzo Life Sciences, Inc., Farmingdale, NY, USA). Then, 50 µL of supernatant/well was used and 100 µL of color reagent was added in each well. Next, wells were mixed and afterwards incubated for 30 min at r.t. The OD was measured following the manufacturer’s instructions.

The target of a further assay is T3, BuChE (equine serum) (Equus caballus, UniProt P81908).
T3 construct: from tissue; host or cells: equine serum
The assay can be described thus: biochemical. The format is biochemical. To be noted: mean ± SD of triplicate determinations.

For a further assay, the target named is hCA II (Homo sapiens, UniProt P00918). As to the kind of experiment: stopped flow CO2 hydrase assay, hCA II. The format is biochemical. To be noted: mean of 3 different assays.
The next assay addresses T4, AChE (electric eel) (Electrophorus electricus, UniProt O42275).
T4 construct: from tissue
As to the kind of experiment: biochemical. The note with it: read-out: inhibition of AChE at 100 µM, 100 µM.

The mark [4] stands for this setting: mean ± SD of triplicate determinations.

T3 sequence (P81908 whole entry): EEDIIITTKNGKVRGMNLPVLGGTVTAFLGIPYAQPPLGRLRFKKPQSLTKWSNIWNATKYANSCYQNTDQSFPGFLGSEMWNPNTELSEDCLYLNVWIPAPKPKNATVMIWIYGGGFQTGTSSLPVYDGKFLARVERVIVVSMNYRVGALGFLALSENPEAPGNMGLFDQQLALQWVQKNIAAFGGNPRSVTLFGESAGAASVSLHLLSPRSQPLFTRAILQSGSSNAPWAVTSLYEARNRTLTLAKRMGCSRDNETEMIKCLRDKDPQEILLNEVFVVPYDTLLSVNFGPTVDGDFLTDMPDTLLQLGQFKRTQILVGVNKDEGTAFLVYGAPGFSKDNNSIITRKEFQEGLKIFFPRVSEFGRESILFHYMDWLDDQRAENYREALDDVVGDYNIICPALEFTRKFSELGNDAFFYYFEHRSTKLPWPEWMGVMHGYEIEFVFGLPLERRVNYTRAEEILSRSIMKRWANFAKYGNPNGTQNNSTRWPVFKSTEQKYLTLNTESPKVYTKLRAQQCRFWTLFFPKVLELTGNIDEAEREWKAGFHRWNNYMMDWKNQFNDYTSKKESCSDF
Chain of hCA VII (P43166 whole entry): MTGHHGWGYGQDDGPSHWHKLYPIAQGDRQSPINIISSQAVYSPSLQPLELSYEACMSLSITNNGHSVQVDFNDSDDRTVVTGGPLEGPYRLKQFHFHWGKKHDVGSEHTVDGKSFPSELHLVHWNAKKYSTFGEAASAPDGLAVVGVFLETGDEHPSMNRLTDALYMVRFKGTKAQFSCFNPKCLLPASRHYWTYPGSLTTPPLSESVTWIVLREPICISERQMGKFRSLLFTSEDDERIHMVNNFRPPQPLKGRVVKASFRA
Chain of hCA I (P00915 whole entry): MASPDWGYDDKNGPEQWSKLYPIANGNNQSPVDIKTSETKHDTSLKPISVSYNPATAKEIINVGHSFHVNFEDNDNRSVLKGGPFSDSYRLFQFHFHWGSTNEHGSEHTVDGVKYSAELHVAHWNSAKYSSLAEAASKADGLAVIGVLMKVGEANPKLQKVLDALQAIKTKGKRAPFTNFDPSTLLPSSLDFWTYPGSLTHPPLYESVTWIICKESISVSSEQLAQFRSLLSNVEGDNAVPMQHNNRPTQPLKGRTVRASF
Chain of hCA XII (O43570 25-354): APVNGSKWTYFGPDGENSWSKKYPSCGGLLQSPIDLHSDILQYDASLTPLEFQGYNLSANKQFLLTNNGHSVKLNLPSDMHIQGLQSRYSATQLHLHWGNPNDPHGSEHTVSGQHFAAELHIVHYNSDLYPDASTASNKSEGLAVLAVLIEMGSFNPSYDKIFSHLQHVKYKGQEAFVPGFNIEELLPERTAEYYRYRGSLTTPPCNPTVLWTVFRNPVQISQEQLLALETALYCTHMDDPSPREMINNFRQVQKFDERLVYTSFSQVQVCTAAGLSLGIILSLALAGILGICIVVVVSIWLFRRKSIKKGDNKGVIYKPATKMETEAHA
T4 sequence (O42275 24-633): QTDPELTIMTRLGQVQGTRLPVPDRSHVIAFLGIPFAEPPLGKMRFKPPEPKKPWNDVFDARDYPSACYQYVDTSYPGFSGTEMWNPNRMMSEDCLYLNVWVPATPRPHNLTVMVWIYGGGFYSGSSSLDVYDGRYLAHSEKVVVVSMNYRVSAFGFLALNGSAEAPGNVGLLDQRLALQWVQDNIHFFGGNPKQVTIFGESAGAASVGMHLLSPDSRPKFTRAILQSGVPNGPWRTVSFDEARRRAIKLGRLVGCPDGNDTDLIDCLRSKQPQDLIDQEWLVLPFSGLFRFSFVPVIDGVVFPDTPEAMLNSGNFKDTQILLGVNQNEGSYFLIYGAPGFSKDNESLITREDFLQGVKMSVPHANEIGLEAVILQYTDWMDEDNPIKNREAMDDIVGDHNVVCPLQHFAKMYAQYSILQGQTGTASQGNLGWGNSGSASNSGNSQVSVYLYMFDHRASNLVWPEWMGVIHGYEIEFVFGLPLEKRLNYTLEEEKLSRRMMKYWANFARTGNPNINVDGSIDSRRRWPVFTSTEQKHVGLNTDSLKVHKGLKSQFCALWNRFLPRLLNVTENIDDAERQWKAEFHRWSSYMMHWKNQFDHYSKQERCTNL

For the molecule `C#CCCCCOc1ccc2ccc(=O)oc2c1` [Compound 9, 7-(Hex-5-yn-1-yloxy)-2H-chromen-2-one], the Ki (commonly the equilibrium dissociation constant of an inhibitor or competing ligand from its target) is 146 nM at hMAO-A (Lineweaver-Burk plots); 31.3 nM on hCA IX; 2.3 nM on hMAO-B (Lineweaver-Burk plots); 77.1 nM at hCA VII; greater than 10000 nM on hCA I; 5.9 nM on hCA XII. The molecule also yielded a Ki on hCA II greater than 10000 nM. Also, the hMAO-A inhibition mechanism result at hMAO-A (Lineweaver-Burk plots) is reported as “competitive inhibition mechanism”. The IC50 (commonly the concentration needed to halve the response being measured) at hMAO-A (setting [4]) stood at 650 ± 27 nM; at hMAO-B (setting [4]) it was 7 ± 0.35 nM; against BuChE (equine serum), 51000 ± 4000 nM. Moreover, at hMAO-B (IC50 hMAO-A/IC50 hMAO-B), the “SI (selectivity index for hMAO-B over hMAO-A)” value is given as 92.8. The hMAO-B inhibition mechanism entry on hMAO-B (Lineweaver-Burk plots) was “competitive inhibition mechanism”. In assay [1], the “cell metabolic activity (MTT) versus LPS only control” value is reported as “able to counteract the LPS-induced increase in cell metabolic activity”. In addition, the IL-6 secretion result in assay [2] is “decreases the amount of the cytokine at 0.01 and 10 µM”. The H2O2 generation entry in [3] was “restoring it to the untreated control levels”. The inhibition (usually the percentage by which the read-out fell short of the control) at 100 µM on AChE (electric eel) was 50%.
